Assay [1] relates to A549 cells (Human lung adenocarcinoma). The conditions noted are these: reference 18; cited from earlier work.
Assay [2] concerns LAM patient-derived 621-101 cells. The assay is described as follows: Proliferation of 621-101 cells. The class given is cell-based, human. The method, then:
(§1) Cell culture and reagents. ELT-3 cells (Eker rat uterine leiomyoma-derived) (22,23) and LAM patient-derived 621-101 cells were cultured in IIA complete medium. HeLa, U2OS and OVARC5 cells were cultured in DMEM supplemented with 10% FBS. 17-beta-estradiol (10 nM), rapamycin (20 nM, Biomols), NS398 (50 μM), aspirin (450 μM Sigma), and 15-epi-LXA4 (100 nM) were used as indicated.

The subject of assay [3] is LAM patient-derived TSC2-deficient 621-101 cells. The assay is described as follows: COX, phospho-protein and secreted prostaglandin levels in 621-101 cells (immunoblot, enzyme immunoassay). The conditions noted are these: 24 hr; for COX-1 levels / COX-2 levels / phosphorylation of MAPK or S6: 50 μM NS398 or 450 μM aspirin, immunoblot. In kind it is cell-based, human. How it is done:
as §1
(§2) Immunoblotting and antibodies. Cells were lysed in m-PER buffer (PIERCE). Antibodies were used: COX-1, COX-2, phospho-MAPK (T202/Y204), phospho-S6 (S235/236), Cleaved caspase 3, cleaved PARP (CELL SIGNALING), tuberin and c-Myc (SANTA CRUZ), smooth muscle actin (BIOGENEX), and beta-actin (SIGMA).
(§3) Quantification of prostaglandin levels. PGE2, 6-keto-PGF1α and creatinine were measured using enzyme immunoassay kits (Cayman Chemical). Levels of secreted prostaglandins were normalized to protein concentrations and expressed as pg/mg protein. Urinary levels of prostaglandins were normalized to creatinine levels and expressed as […].

In another assay the test system is TSC2-deficient cells. The assay is described as follows: COX-2 activation and prostaglandin production in TSC2-deficient cells with Torin 1. The class given is cell-based. The conditions noted are these: specifically to TSC2-deficient cells.
The subject of assay [4] is xenograft tumors of TSC2-deficient ELT3-luciferase-expressing cells. The assay is described as follows: Aspirin in xenograft tumor model of ELT3-luciferase-expressing cells. The class given is in vivo, mice. The method, then:
Animal studies. All animal work was performed in accordance with protocols approved by the IACUC-BWH. Female intact CB17-SCID mice were used as described previously (8, 24, 25). Aspirin (100 mg/kg/day, in drinking water) treatment was initiated five weeks post-cell inoculation. Urine specimens were collected.
as §2, §3
Statistical analyses. Statistical analyses were performed using Student's t-test when comparing two groups for in vitro and in vivo studies. Two-Way ANOVO test was performed in xenograft tumor-aspirin studies. Mann Whitney tests were used for prostaglandin quantification in clinical data.
To determine whether inhibition of COX-1 and/or COX-2 impacts the growth of LAM patient-derived cells, 621-101 cells were treated with Sulindac (a COX-1 inhibitor), NS398 (a COX-2 inhibitor), or aspirin (an irreversible COX-1 and COX-2 inhibitor) for 24 hr. […] The inventors next assessed the possible benefit of aspirin in a xenograft tumor model of TSC2-deficient ELT3-luciferase-expressing cells. Aspirin treatment for two-three weeks decreased the intensity of bioluminescence (FIG. 3c), reduced the growth of xenograft tumors by 35% (FIG. 3d), and decreased the tumor size (FIG. 3e). Tumors also had reduced expression of COX-2 and c-Myc, and increased levels of cleaved-caspase-3 and cleaved-PARP (Data not shown).

Assay [5] concerns tumors of TSC2-deficient LAM patient-derived cells. The assay is described as follows: Metastatic tumor model of LAM derived cells. In kind it is in vivo, mice. The conditions noted are these: aspirin treatment. The method, then: Arrows indicate individual tumors.
Bioluminescent imaging was performed weekly. Tumor area was normalized to the baseline before drug administration.
FIGS. 3f and 3g show the urinary PGE2 that was quantified from mice treated with aspirin or vehicle for 7 and 30 days. *p<0.05.

The next assay has as its system LAM patients. The assay is described as follows: Exhaled breath condensate and lung function in LAM patients on aspirin. The class given is in vivo, human. The method, then:
To examine the functional effect of COX-2 in LAM lungs, 15-epi-lipoxin A4 (LXA4), a product of aspirin-acetylated COX-2, was measured in exhaled breath condensate (EBC) from three LAM subjects (data not shown). 15-epi-LXA4 was detected in EBC and the levels were increased with aspirin (data not shown).

The mark [6] stands for this setting: aspirin 100 mg/kg/day in drinking water, two-three weeks.
[7] abbreviates: aspirin-treated mice, data not shown.
Where [8] appears, read: LAM patients, aspirin treatment.

As for `CCCCC[C@@H](O)/C=C/C=C\C=C\C=C\[C@@H](O)[C@@H](O)CCCC(=O)O` [15-epi-LXA4, 15-epi-lipoxin A4], the “proliferation of A549 cells” value in assay [1] is “decreases”. Besides, the “proliferation of LAM patient-derived 621-101 cells” value in assay [2] (15-epi-LXA4 100 nM, data not shown) is “suppressed”.
For `CS(=O)(=O)Nc1ccc([N+](=O)[O-])cc1OC1CCCCC1` [NS398], in assay [3], the COX-1 levels entry is on record as “reduced”, the COX-2 levels entry is reported as “reduced” and the “phosphorylation of MAPK or S6” value is “without affecting”.
For the molecule `CCC(=O)N1CCN(c2ccc(-n3c(=O)ccc4cnc5ccc(-c6cnc7ccccc7c6)cc5c43)cc2C(F)(F)F)CC1` [Torin 1], the “COX-2 activation and prostaglandin production” value in the assay with TSC2-deficient cells was “suppresses”.
Turning to `CC(=O)Oc1ccccc1C(=O)O` [aspirin], in assay [4] (setting [6]), the intensity of bioluminescence result was “decreased”, the “reduction of growth of xenograft tumors” value is 35% and the tumor size result was “decreased”. For the same molecule, the “urinary levels of PGE2 and 6-Keto-PGF1α” value in assay [4] (aspirin-treated mice bearing ELT3 xenograft tumors, data not shown) is recorded as “markedly reduced”. For the same molecule, the “apoptosis in xenograft tumors” value in assay [4] (aspirin-treated mice compared to vehicle-treatment) was “higher levels”. In addition, in assay [4] (setting [7]), the “expression of COX-2 and c-Myc in tumors” value is on record as “reduced”; the “levels of cleaved-caspase-3 and cleaved-PARP in tumors” value is listed as “increased”. In assay [5], the “growth of tumors of LAM derived cells” value is given as “decreased” and the urinary prostaglandins entry is recorded as “reduction”. Moreover, in the assay on LAM patients (setting [8]), the lung function result is “improved” and the “prostaglandin levels in exhaled breath condensate” value is “reduced”. In addition, in the assay on LAM patients (three LAM subjects, oral aspirin ingestion, data not shown), the “15-epi-LXA4 levels in exhaled breath condensate (EBC)” value is reported as “increased”. Besides, in assay [3], the COX-1 levels entry was “reduced”, the COX-2 levels entry is recorded as “reduced” and the “phosphorylation of MAPK or S6” value is “without affecting”. Besides, the PGE2 levels entry in assay [3] (aspirin 450 μM, conditioned media, ELISA) was “significantly decreased”. Further, in assay [2] (aspirin 450 μM), the “proliferation of 621-101 cells” value was “reduced”.

Source of the values: patent US9925202B2, “Treatment of lymphangioleiomyomatosis” (THE BRIGHAM AND WOMEN'S HOSPITAL, INC., priority 2013, dated 2018).
